Source: patent publication US7985774B2, “Use of 3,5-seco-4-nor-cholestane derivatives for obtaining a cytoprotective drug” (Trophos, priority 2006, dated 2011)

Columns and labels:
caspase-3 = experiment: Caspase-3 activity (apoptosis) after doxorubicin; assay type: cell-based, rabbit; details: doxorubicin 1 μM alone, 8 hrs; control 19±9
Procedure: (§1) Isolated ventricular cells are obtained from hearts of male New Zealand rabbits as described in A. d'Anglemont de Tassigny et al., Fund. Clin. Pharmacol, 18: 531-38, 2004. Briefly, the rabbits (2.0-2.5 kg) are anaesthetized with a pentobarbital solution (50 mg/kg) and they then receive heparin (200 IU/kg). The hearts are excised and immediately perfused, for 10-15 minutes by means of a Langendorff apparatus without recirculation with an oxygenated tyrode (calcium-free) isotonic solution (95%, 2-5% CO2) (in mM: NaCl 135, KCl 5.4, Na2PO4 0.33, MgCl2 1.0, HEPES 10, pH adjusted to 7.4 with 1N NaOH at 37° C., 280-300 mOsmol/kgH2O). Next, all the hearts are perfused for 3 minutes in the “recirculation” mode with the same calcium-free Tyrode solution (coronary flow rate, 10-15 mL/min) added with 1 mg/mL of type II collagenase and 0.28 mg/mL of XIV type protease. Finally, all the hearts are perfused in a mode without any recirculation with the same solution of Tyrode supplemented with 0.3 mM of CaCl2 for 10 min. The left ventricle is removed and cut into small pieces; cell dissociation is achieved by mild mechanical stirring. Extracellular calcium is added by increments every 15 minutes, in order to reach a physiological concentration of 1.0 mM. […]
Caspase-3 activity is used as a quantitative method for measuring apoptosis. […] The fluorogenic substrate for measuring caspase-3 activity (DEVD) is marked with the fluorochrome, 7-amino-4-methyl coumarine (AMC), which produces […] fluorescence detectable in UV light at 360/460 nm for 210 min. […]
(§2) Apoptosis is induced in isolated cardiomyocytes by 3-8 hour exposure to 1 μM of doxorubicin added into an isotonic solution containing (in mM) NaCl 110, KCl 5.4, Na2PO4 0.33, NaHCO3 25, glucose 5, MgCl2 0.8, CaCl2 1, pH adjusted to 7.4. […] The contractility of cardiomyocytes was measured every hour during the 8 hrs of exposure to doxorubicin. […]

[1] = system: rabbit ventricular cardiomyocytes; experiment: Contractile dysfunction test induced by doxorubicin (sarcomer shortening); assay type: cell-based; details: doxorubicin 1 μM alone, after 4 hrs of exposure; control −19.49±2.06%
Procedure: A stock solution of 3,5-seco-4-nor-cholestan-5-one oxime-3-ol at a concentration of 10 mM in 100% DMSO was used.
The final concentration in DMSO was the same for all the experimental points, independently of the molecular concentrations used.
3,5-seco-4-nor-cholestan-5-one oxime-3-ol was tested at concentrations of 0.1 and 0.3 μM, diluted in a Tyrode solution (composition in mmol/L: NaCl 135, KCl 5.4, NaH2PO4 0.33, CaCl2 1.2, MgCl2 1.0, Hepes 10; pH adjusted to 7.4 with NaOH).
Isolated ventricular cells are obtained from hearts of male New Zealand rabbits as described in A. d'Anglemont de Tassigny et al., Fund. Clin. Pharmacol, 18: 531-38, 2004. Briefly, the rabbits (2.0-2.5 kg) are anaesthetized with a pentobarbital solution (50 mg/kg) and they then receive heparin (200 IU/kg). The hearts are excised and immediately perfused, for 10-15 minutes by means of a Langendorff apparatus without recirculation with an oxygenated tyrode (calcium-free) isotonic solution (95%, 2-5% CO2) (in mM: NaCl 135, KCl 5.4, Na2PO4 0.33, MgCl2 1.0, HEPES 10, pH adjusted to 7.4 with 1N NaOH at 37° C., 280-300 mOsmol/kgH2O). […]
The myocytes were selected for the study according to the following criterion: a rod-like aspect with very apparent striations and no intracellular vacuola, no spontaneous contraction when they are stimulated with 1 mM Ca^2+, and with constant rest length and contraction amplitude. The length of the sarcomers was measured by means of a video image analysis program and the data were acquired at a rate of 240 samples/s. […]
as §2

[2] = system: rabbit ventricular cardiomyocytes; experiment: Annexin V marking of phosphatidylserine (apoptosis) after doxorubicin; assay type: cell-based; details: doxorubicin 1 μM alone, 3 hrs; control 100%
Procedure: as §1
Annexin V marking of phosphatidylserine was used as a quantitative method for measuring apoptosis by using the MiniMacs cell isolation kit (Miltenyi Biotec, Bergisch, Gladbach, Germany). […] The column is removed from the magnetic field, the cells exposing phosphatidylserine, magnetically retained, are eluted as a positive fraction and counted with a Mallassez cell counter. […]
as §2

C57BL6 mice = experiment: In vivo model of myocardium infarction (coronary occlusion-reperfusion)
Procedure: The purpose of this experiment is to study in vivo the cardioprotective properties of the compounds, 3,5-seco-4-nor-cholestan-5-one oxime-3-ol and 3,5-seco-4-nor-cholestan-5-one oxime-3-N,N-dimethylglycine ester, in a murine coronary occlusion-reperfusion model.
The compounds to be tested are administered intravenously in mice, 5 minutes before reperfusion of the myocardium ischemiated beforehand. As controls, carriers of the compounds beta-cyclodextrin (hereafter called βCD) and water, respectively, are administered under the same conditions as for the compounds.
In order to determine the effect of the tested compounds, the size of the infarction is measured after 24 hour reperfusion.
6-8 week old male C57BL6 mice are anaesthetized with sodium pentobarbital (50 mg/kg i.p.) and are ventilated after intubation with an O2/CO2 (95%/5%) mixture throughout the experiment. The surface electrocardiogram (ECG) is recorded and viewed on an oscilloscope all along surgery. Under strict asepsis conditions, the jugular vein is catheterized for intravenous administration of the compounds. A left lateral thoracotomy is performed and after pericardiotomy, a major branch of the left coronary artery is localized in the latero-posterior region of the left ventricle. A prolene no. 8 suture is positioned around this artery so as to form a mobile loop for making a temporary coronary occlusion.
All the mice were subject to a 30 minute temporary coronary occlusion. Ischemia of the myocardium region is confirmed by cyanosis of the myocardium surface and a deviation of the ST segment of the electrocardiogram.
Each of the compounds (treated group, n=10) or its solvent (control group, n=10) was administered as a bolus intravenously, 5 min before lifting the 30 minutes of coronary occlusion.
3,5-seco-4-nor-cholestan-5-one oxime-3-ol, dissolved beforehand to a final concentration of 0.46 mg/ml in a 30% βCD solution in phosphate buffer prepared by saturation followed by centrifugation, is administered at a dosage of 1 mg/kg.
3,5-seco-4-nor-cholestan-5-one oxime-3-N,N-dimethylglycine ester, dissolved beforehand to a final concentration of 1.56 mg/ml in sterile water by stirring and sonication, is administered at a dosage of 3.9 mg/kg.
The same volume of carrier is administered in the corresponding control groups.
Twenty four hours after the end of coronary occlusion, the mice are re-anaesthetized with sodium pentobarbital (50 mg/kg i.p.) and heparin is administered intravenously (Choay© heparin 1,000 IU/kg). A ligature of the coronary artery is achieved at the same location having been subject to the first occlusion 24 h previously. The mice are then euthanized with a lethal saturated dose of potassium chloride and their heart is rapidly excised and then mounted through the aorta artery on a retrograde perfusion system of the Langendorff type.
A 5% Evans blue solution is perfused retrogradely so that the healthy myocardium is colored in blue; the area made ischemic during the coronary occlusion, or <<area of risk AR>> remaining uncolored by default.
The left ventricle is then cut out into 5 slices with equal thicknesses (1 mm) by means of a slicer specially designed for hearts of mice (Les Isolants de Paris, Palaiseau), which are then weighed.
These slices are incubated in a 1% triphenyltetrazolium chloride solution (TTC, Sigma, Poole, UK) at pH 7.4 for 20 min at 37° C. and then set in 4% formol. TTC has the property of coloring the non-infarcted myocardium in red, and so showing the infarcted areas in white. Each heart slice is placed under a stereo microscope for taking a high definition digital photograph.
Quantification of infarction and the area of risk is carried out by planimetry (Scion Image, Scion, Frederick Md., USA) and referred to the weight of each slice.
The area of risk (non-blue area) is expressed as a percentage of the weight of the left ventricle. The infarction sizes are expressed as a percentage of the weight of the area of risk. […]

[3] = 3.9 mg/kg i.v. bolus in water 5 min before reperfusion, 30 min occlusion, 24 h reperfusion, mean±SEM

| SMILES | caspase-3 activity (caspase-3) | shortening of the peak relatively to the base line [1] | Apoptosis as % of change in annexin V marking [2] | Area of risk (percentage of the weight of the left ventricle) (C57BL6 mice; [3]) | Infarction size (percentage of the weight of the area of risk) (C57BL6 mice; [3]) | Infarction size reduction (C57BL6 mice; 3.9 mg/kg i.v., versus carrier (water)) |
| --- | --- | --- | --- | --- | --- | --- |
| COc1cccc2c1C(=O)c1c(O)c3c(c(O)c1C2=O)C[C@@](O)(C(=O)CO)C[C@@H]3O[C@H]1C[C@H](N)[C@H](O)[C@H](C)O1 [doxorubicin, reference compound] | 120 ± 15 fmol/min | −53.20±7.70% | 320% |  |  |  |
| CC(C)CCC[C@@H](C)[C@H]1CC[C@H]2[C@@H]3CCC(=NO)[C@](C)(CCCOC(=O)CN(C)C)[C@H]3CC[C@]12C [3,5-seco-4-nor-cholestan-5-one oxime-3-N,N-dimethylglycine ester] |  |  |  | 8 +/− 3% | 23 +/− 9% | 42.5% |
